For one experiment, the target named is Mu-type opioid receptor (Homo sapiens, UniProt P35372).
Experiment [1] has as its target 5-hydroxytryptamine receptor 2B (Homo sapiens, UniProt P41595). Format: functional, cell-based.
The next experiment concerns the target Motilin receptor (Homo sapiens, UniProt O43193).
The target of experiment [2] is T1, 5-hydroxytryptamine receptor 3A (Homo sapiens, UniProt P46098).
T1 sequence (P46098 whole entry): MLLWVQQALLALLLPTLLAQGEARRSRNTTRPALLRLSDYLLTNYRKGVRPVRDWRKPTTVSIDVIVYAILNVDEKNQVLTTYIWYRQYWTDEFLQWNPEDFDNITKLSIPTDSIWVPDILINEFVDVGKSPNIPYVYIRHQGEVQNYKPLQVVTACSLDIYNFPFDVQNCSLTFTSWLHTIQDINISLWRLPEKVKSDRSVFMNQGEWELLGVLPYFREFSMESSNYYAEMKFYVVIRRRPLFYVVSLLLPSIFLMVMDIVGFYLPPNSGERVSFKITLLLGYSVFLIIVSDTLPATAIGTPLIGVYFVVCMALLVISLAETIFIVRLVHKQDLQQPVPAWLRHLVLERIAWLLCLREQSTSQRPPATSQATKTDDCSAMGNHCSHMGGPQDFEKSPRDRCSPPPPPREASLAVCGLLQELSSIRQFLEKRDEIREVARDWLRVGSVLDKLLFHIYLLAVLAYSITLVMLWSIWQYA
It counts as functional.

The target of experiment [3] is T2, Cholecystokinin receptor type A (Homo sapiens, UniProt P32238).
T2 sequence (P32238 whole entry): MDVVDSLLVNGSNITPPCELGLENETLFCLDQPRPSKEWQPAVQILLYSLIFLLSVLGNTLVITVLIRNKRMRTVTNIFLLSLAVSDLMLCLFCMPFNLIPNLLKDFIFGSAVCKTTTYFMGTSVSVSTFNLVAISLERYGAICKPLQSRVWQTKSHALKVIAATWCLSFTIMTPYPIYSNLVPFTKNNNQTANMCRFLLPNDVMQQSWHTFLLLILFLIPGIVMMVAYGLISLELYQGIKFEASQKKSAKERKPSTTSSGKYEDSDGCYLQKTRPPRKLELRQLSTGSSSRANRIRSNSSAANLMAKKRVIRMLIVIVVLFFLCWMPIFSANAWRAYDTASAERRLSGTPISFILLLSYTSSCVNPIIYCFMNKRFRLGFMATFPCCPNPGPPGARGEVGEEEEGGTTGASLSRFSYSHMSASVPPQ

For experiment [4], the target named is T3, Equilibrative nucleoside transporter 1 (Homo sapiens, UniProt Q99808).
T3 sequence (Q99808 whole entry): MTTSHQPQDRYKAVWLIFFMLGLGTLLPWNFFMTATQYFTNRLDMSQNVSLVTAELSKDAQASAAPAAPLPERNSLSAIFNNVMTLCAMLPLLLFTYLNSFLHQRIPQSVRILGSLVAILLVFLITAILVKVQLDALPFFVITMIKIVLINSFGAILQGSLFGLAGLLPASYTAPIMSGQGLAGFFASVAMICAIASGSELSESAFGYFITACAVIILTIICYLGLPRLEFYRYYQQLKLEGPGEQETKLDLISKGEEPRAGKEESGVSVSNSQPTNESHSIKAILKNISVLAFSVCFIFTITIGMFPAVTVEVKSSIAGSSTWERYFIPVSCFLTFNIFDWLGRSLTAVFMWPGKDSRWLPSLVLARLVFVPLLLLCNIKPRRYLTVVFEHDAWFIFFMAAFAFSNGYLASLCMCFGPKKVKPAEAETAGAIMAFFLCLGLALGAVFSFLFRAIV

Experiment [5] has as its target T4, Alpha-2C adrenergic receptor (Homo sapiens, UniProt P18825).
T4 sequence (P18825 whole entry): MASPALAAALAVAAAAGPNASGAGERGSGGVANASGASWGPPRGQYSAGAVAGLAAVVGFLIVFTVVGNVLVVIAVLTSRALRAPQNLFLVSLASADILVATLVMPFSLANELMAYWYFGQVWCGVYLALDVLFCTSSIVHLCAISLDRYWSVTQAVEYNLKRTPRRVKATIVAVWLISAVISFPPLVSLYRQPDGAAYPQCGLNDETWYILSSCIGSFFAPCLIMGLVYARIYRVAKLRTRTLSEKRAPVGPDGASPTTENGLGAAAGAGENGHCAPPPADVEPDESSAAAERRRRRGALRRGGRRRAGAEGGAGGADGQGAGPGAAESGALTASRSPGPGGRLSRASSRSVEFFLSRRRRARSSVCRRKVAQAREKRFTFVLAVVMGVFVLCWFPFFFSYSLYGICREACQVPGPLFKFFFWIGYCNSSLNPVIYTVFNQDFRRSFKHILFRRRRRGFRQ
Format: functional.

Experiment [6] has as its target T5, Alpha-2B adrenergic receptor (Homo sapiens, UniProt P18089).
T5 sequence (P18089 whole entry): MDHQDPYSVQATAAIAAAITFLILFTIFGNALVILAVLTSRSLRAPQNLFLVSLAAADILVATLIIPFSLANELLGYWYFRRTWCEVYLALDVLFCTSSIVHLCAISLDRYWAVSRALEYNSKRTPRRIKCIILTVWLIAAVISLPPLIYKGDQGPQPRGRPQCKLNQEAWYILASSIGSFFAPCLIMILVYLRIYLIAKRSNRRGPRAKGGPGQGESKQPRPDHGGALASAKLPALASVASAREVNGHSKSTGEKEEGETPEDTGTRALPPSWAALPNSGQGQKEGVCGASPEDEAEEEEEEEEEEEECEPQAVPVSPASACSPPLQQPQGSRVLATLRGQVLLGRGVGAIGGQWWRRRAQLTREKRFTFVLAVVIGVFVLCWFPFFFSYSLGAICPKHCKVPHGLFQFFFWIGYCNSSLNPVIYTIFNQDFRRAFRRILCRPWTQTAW

For the next experiment, the target named is Cannabinoid receptor 1 (Homo sapiens, UniProt P21554). Format: functional, cell-based.

SMILES strings stand for the structures. Bounds are passed on as bounds.
Note: assay procedure not described here.

Sequence of Cannabinoid receptor 1 (P21554 whole entry): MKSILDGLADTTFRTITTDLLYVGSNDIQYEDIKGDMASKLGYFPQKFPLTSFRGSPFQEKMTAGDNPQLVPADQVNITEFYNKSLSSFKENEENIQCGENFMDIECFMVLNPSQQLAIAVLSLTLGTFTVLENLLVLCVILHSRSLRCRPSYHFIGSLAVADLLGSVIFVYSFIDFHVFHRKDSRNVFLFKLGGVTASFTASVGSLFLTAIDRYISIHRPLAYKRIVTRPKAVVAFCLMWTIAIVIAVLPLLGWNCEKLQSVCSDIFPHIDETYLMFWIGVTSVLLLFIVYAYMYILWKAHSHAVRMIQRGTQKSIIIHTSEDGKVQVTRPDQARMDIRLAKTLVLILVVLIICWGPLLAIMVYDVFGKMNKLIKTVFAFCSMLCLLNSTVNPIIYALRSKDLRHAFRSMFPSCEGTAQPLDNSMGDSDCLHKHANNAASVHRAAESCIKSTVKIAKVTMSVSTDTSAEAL
Sequence of Motilin receptor (O43193 whole entry): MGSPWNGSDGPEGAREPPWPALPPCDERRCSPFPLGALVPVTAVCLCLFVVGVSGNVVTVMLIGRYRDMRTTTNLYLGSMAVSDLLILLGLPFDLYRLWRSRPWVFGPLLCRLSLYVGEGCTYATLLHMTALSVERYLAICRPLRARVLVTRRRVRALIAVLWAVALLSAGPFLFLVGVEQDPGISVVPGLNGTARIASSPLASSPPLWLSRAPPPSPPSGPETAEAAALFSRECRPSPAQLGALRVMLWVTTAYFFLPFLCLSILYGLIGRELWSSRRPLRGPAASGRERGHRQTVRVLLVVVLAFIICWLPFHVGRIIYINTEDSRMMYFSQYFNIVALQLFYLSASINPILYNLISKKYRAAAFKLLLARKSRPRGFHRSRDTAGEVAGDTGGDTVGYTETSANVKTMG
Sequence of 5-hydroxytryptamine receptor 2B (P41595 whole entry): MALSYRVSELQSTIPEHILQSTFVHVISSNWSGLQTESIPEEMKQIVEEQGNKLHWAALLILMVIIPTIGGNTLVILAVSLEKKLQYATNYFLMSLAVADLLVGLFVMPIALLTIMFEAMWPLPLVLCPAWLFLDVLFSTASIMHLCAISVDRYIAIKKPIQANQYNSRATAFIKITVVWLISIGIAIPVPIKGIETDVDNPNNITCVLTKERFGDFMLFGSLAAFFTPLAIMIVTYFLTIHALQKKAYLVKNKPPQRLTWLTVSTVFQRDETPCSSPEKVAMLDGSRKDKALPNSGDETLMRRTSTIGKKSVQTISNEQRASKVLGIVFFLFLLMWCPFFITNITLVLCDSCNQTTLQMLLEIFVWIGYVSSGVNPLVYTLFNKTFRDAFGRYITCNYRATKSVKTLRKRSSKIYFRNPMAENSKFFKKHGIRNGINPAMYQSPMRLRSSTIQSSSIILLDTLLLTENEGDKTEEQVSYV
Sequence of Mu-type opioid receptor (P35372 whole entry): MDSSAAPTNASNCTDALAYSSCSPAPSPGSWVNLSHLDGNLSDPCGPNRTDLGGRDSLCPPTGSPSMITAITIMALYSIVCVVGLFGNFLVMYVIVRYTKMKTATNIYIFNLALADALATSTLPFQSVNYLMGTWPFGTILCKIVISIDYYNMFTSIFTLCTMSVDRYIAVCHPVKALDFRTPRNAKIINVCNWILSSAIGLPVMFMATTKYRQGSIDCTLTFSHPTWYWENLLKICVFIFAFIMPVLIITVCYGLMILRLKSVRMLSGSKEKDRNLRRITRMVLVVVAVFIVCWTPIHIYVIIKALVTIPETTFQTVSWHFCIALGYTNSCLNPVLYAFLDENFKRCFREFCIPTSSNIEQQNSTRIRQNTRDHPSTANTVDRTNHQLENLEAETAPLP

For the compound `N=C(N)NC(=O)c1nc(Cl)c(N)nc1N` [AMILORIDE], the AC50 is greater than 10 µM at Mu-type opioid receptor; greater than 30 µM in [1]; greater than 30 µM on Motilin receptor; greater than 30 µM in experiment [2]; greater than 30 µM in experiment [3]; greater than 30 µM in [4]. This compound had an AC50 in experiment [5] greater than 30 µM.
`COc1ccc(-c2cc(=S)ss2)cc1` [ANETHOLTRITHION]: the AC50 was greater than 30 µM in experiment [1]; greater than 10 µM at Motilin receptor; greater than 10 µM in [2]; greater than 30 µM in experiment [6]; greater than 10 µM in [3]; greater than 30 µM at Cannabinoid receptor 1. Besides, the concentration at half-maximal activity (AC50) in [4] is 5.4 µM; in experiment [5], greater than 30 µM.
As for `CC(C)(C)NCC(O)COc1ccccc1C#N` (stereo not given) [BUNITROLOL], the concentration at half-maximal activity (AC50) in experiment [1] is greater than 30 µM; in experiment [2] it was greater than 30 µM; in experiment [6], 26 µM; on Cannabinoid receptor 1, greater than 30 µM; in experiment [5] it was greater than 30 µM.
Consider `C[C@]12CCC(=O)C=C1C=C[C@@H]1[C@@H]2CC[C@@]2(C)[C@H]1CC[C@@]21CCC(=O)O1` [CANRENONE], for which the concentration at half-maximal activity (AC50) (in [1]; on Motilin receptor; in experiment [2]; in [6]; in [3]; on Cannabinoid receptor 1) was greater than 30 µM throughout. Further, the AC50 in experiment [4] and in experiment [5] was greater than 30 µM throughout.
For the compound `CN(C)CCC(O)(c1ccccc1)c1ccccc1Cl` (stereo not given) [CHLOPHEDIANOL], the half-maximal activity concentration (AC50) on Mu-type opioid receptor was greater than 30 µM; in experiment [1], greater than 10 µM; at Motilin receptor, greater than 10 µM; in experiment [2] it was greater than 30 µM; in experiment [6], greater than 10 µM; in [3] it was greater than 10 µM. The figures for the AC50 (at Cannabinoid receptor 1; in experiment [4]; in experiment [5]) were greater than 30 µM, greater than 10 µM and greater than 10 µM, respectively.
On to `C[C@]12C=CC(=O)C=C1C(Cl)=C[C@@H]1[C@@H]2[C@@H](O)C[C@@]2(C)[C@H]1CC[C@]2(O)C(=O)CO` [CLOPREDNOL], for which the half-maximal activity concentration (AC50) in [1] is greater than 30 µM; on Motilin receptor it was 16 µM; in [2], greater than 30 µM; in experiment [6] it was greater than 30 µM; in experiment [3] it was greater than 30 µM; at Cannabinoid receptor 1, greater than 30 µM. The AC50 in [4] and in experiment [5] was greater than 30 µM in each case.
For `COc1cccc2c1C(=O)c1c(O)c3c(c(O)c1C2=O)C[C@@](O)(C(=O)CO)C[C@@H]3O[C@H]1C[C@H](N)[C@H](O)[C@H](C)O1` [DOXORUBICIN], the AC50 is greater than 30 µM at Mu-type opioid receptor; greater than 10 µM in [1]; greater than 30 µM on Motilin receptor; greater than 30 µM in experiment [2]; greater than 30 µM in experiment [3]; greater than 30 µM on Cannabinoid receptor 1. Moreover, the AC50 in experiment [4] and in experiment [5] was greater than 30 µM in each case.
Turning to `C[C@]12CCC(=O)C=C1[C@@H]1C[C@@H]1[C@H]1[C@@H]3[C@@H]4C[C@@H]4[C@@]4(CCC(=O)O4)[C@@]3(C)CC[C@@H]12` [DROSPIRENONE], the AC50 is 26 µM in experiment [1]; greater than 30 µM on Motilin receptor; greater than 30 µM in experiment [2]; greater than 30 µM in experiment [6]; greater than 30 µM in experiment [3]; greater than 30 µM in experiment [4]. The same compound came in with an AC50 in experiment [5] greater than 30 µM.
As to `CC(C)(Oc1ccc(Cl)cc1)C(=O)OCCOC(=O)c1cccnc1` [ETOFIBRATE], the AC50 (in experiment [1]; on Motilin receptor; in [2]; in [6]; in [3]; on Cannabinoid receptor 1) was greater than 30 µM in each case. The half-maximal activity concentration (AC50) in experiment [4] and in experiment [5] was greater than 30 µM each time.
In the case of `CC(NCCC(c1ccccc1)c1ccccc1)c1ccccc1` (stereo not given) [FENDILINE], half-maximal activity on Mu-type opioid receptor (AC50) was put at 0.78 µM.
`CCn1c(=O)c2c(nc(/C=C/c3ccc(OC)c(OC)c3)n2C)n(CC)c1=O` [ISTRADEFYLLINE]: in experiment [5], the half-maximal activity concentration (AC50) was greater than 30 µM.
Take `COc1ccc(C(=O)c2ccccc2)c(O)c1` [OXYBENZONE]: the concentration at half-maximal activity (AC50) (in experiment [1]; in experiment [2]; in experiment [6]; on Cannabinoid receptor 1; in experiment [5]) was greater than 30 µM in each case.
Regarding `C[C@]12C=CC(=O)C=C1CC[C@@H]1[C@@H]2[C@@H](O)C[C@@]2(C)[C@H]1CC[C@]2(O)C(=O)CO` [PREDNISOLONE], the AC50 at Mu-type opioid receptor was greater than 30 µM; in experiment [1], greater than 10 µM; at Motilin receptor, greater than 10 µM; in [2], greater than 30 µM; in [3], greater than 30 µM; on Cannabinoid receptor 1, greater than 30 µM. The values for the AC50 in experiment [4] and in experiment [5] were greater than 30 µM and greater than 10 µM, respectively.
Take `CCC(=O)c1ccc2c(c1)N(CC(C)N(C)C)c1ccccc1S2` (stereo not given) [PROPIOMAZINE]: the AC50 on Mu-type opioid receptor is 14 µM; in experiment [1], greater than 10 µM; at Motilin receptor, greater than 10 µM; in experiment [2], greater than 30 µM; in experiment [6], 0.32 µM; in [3], greater than 10 µM. The AC50 was greater than 10 µM in experiment [4] and 4.5 µM in experiment [5].
For `Cc1cn(-c2cc(NC(=O)c3ccc(C)c(Nc4nccc(-c5cnccn5)n4)c3)cc(C(F)(F)F)c2)cn1` [RADOTINIB], the AC50 in [5] is greater than 30 µM.
For the compound `Cc1ccc(O)c([C@H](CCN(C(C)C)C(C)C)c2ccccc2)c1` [TOLTERODINE], the AC50 was greater than 10 µM at Mu-type opioid receptor; greater than 10 µM in experiment [1]; greater than 10 µM in experiment [2]; greater than 10 µM in experiment [6]; greater than 30 µM at Cannabinoid receptor 1; greater than 10 µM in experiment [5].
In the case of `CC1(C)O[C@@H]2C[C@H]3[C@@H]4CCC5=CC(=O)C=C[C@]5(C)[C@@]4(F)[C@@H](O)C[C@]3(C)[C@]2(C(=O)CO)O1` [TRIAMCINOLONE ACETONIDE], the AC50 (in experiment [1]; at Motilin receptor; in experiment [2]; in [3]; at Cannabinoid receptor 1; in experiment [5]) was greater than 30 µM in each case.
In the case of `Oc1cc(Cl)ccc1Oc1ccc(Cl)cc1Cl` [TRICLOSAN], the AC50 (in [1]; on Motilin receptor; in experiment [6]; in experiment [3]; at Cannabinoid receptor 1; in experiment [5]) was greater than 30 µM throughout.

(Values after ChEMBL document CHEMBL5291721, “A preclinical secondary pharmacology resource illuminates target-adverse drug reaction associations of marketed drugs” (Nat Commun, 2023).)
